# Target: CDK2/CyclinE1 (Homo sapiens (Human), UniProt P24941)
# Test: CDK2 kinase assay (TR-FRET)
# Type: biochemical
# Settings: CDK2/CyclinE1 0.5 nM, ATP 50 μM
# Procedure: The purpose of these assays is to evaluate the inhibition of small molecule inhibitors by using TR-FRET assay.
# Compound Preparation. Dissslove the compounds into DMSO solution to make 10 mM DMSO stock. Serially dilute the stock solution from highest concentration down to lowest in DMSO to make the compound stock plate (100× stock plates). To make 5× compound intermediate plate, add 38 μL of assay buffer (50 mM HEPES, pH 7.5, 0.05 mg/mL BSA, 10 mM MgCl2, 1 mM EGTA, 0.01% Tween-20, 2 mM DTT) into each well of the V-bottom plate; then transfer 2 μL of the stock compound solution of each concentration from the compound stock plate (100× stock), and mix well.
# Enzyme reaction. Transfer 2 μL compound from 5× intermediate plate into assay plate, then add 4 μL/well 2.5× Enzyme mix to assay plate, incubation for 10 min at room temperature. For positive control wells, add 4 μL/well assay buffer instead of Enzyme mix. Then add 4 μL/well 2.5× Substrate mix to assay plate, and incubation at 25° C. for 30 min at room temperature. After reaction, 10 μL 2× Detection mix (final 15 mM EDTA, 1× LANCE Detection Buffer, 0.5 nM Detection antibody) was added and incubated for 1 h prior to detection with excitation and emission at 320 and 665 nm (Tecan Spark® TR-FRET mode Tecan).
# Inhibition rate (IR) of the tested compounds was determined by the following formula: IR (%)=(average High control−compound well)/(average High control−average Low control)*100%. Fit the compound IC50 from non-linear regression equation: Y=Bottom+(Top−Bottom)/(1+10^((Log IC50−X)*HillSlope)). X: Log of cpd concentration; Y: Inhibition rate (TR); Top and Bottom: Plateaus in same units as Y, log IC50: same log units as X; HillSlope: Slope factor or Hill slope.
row,SMILES,IC50
1,COCc1cc(C(=O)Nc2cc([C@@H]3C[C@H](OC(=O)NC(C)C)[C@@H]4C[C@@H]43)[nH]n2)n(C)n1 [Compound 9],1000 nM
2,Cn1nccc1C(=O)Nc1cc([C@H]2C[C@@H](OC(=O)NC3(C)CC3)CO2)[nH]n1 [Compound 94],1.3 nM
3,CC(C)NC(=O)O[C@@H]1CC[C@H](c2cc(NC(=O)[C@@H]3C[C@@H](C(C)C)N(S(C)(=O)=O)C3)n[nH]2)C1 [Compound 179],12.6 nM
4,C#C[C@H]1C[C@@H]1C(=O)Nc1cc([C@@H]2C[C@H](OC(=O)NC(C)(C)C)CO2)[nH]n1 [Compound 167],1.4 nM
5,"CC(C)NC(=O)O[C@@H]1CC[C@H](c2cc(NC(=O)C3CC3c3cnn(C)c3)n[nH]2)C1 (single isomer, unassigned) [Compound 210]",1 nM
6,C#C[C@H]1C[C@@H]1C(=O)Nc1cc([C@@H]2CC[C@H](OC(=O)NC3(C)COC3)C2)[nH]n1 [Compound 222],1.1 nM
7,"CC(C)NC(=O)O[C@@H]1CC[C@H](c2cc(NC(=O)C3CC3C#N)n[nH]2)C1 (single isomer, unassigned) [Compound 118]",1.8 nM
8,CC(C)NC(=O)O[C@@H]1CC[C@H](c2cc(NC(=O)C3CC34CCOC4)n[nH]2)C1 (stereo partly drawn) [Compound 176],33 nM
9,CC(C)NC(=O)O[C@@H]1CC[C@H](c2cc(NC(=O)[C@H]3CCN(C(=O)c4cnn(C)c4)C3)n[nH]2)C1 [Compound 32],2.9 nM
10,CC(C)NC(=O)O[C@@H]1CC[C@H](c2cc(NC(=O)C3CN(S(C)(=O)=O)CC3C)n[nH]2)C1 (stereo partly drawn) [Compound 74],2.2 nM
11,C#C[C@H]1C[C@@H]1C(=O)Nc1cc([C@@H]2C[C@H](OC(=O)NC(C)(C)CC)CO2)[nH]n1 [Compound 169],1.9 nM
12,"CC(C)(C)NC(=O)O[C@@H]1CC[C@H](c2cc(NC(=O)C3CC3C#N)n[nH]2)C1 (single isomer, unassigned) [Compound 187]",1.4 nM
13,"Cc1c(C2CC2C(=O)Nc2cc([C@H]3CC[C@@H](OC(=O)NC4(C)CC4)C3)[nH]n2)cnn1C (single isomer, unassigned) [Compound 205]",24 nM
14,CC(C)NC(=O)O[C@@H]1CO[C@H](c2cc(NC(=O)c3cc(C4CC4)nn3C)n[nH]2)C1 [Compound 77],56 nM
15,COCc1cc(C(=O)NC2=NCC([C@H]3CC[C@H](N4CCN(C(C)C)C4=O)C3)=C2)n(C)n1 [Compound 20],1000 nM
16,CC(C)NC(=O)O[C@@H]1CC[C@H](c2cc(Nc3nccc(-c4cnn(C)c4)n3)n[nH]2)C1 [Compound 11],40.7 nM
17,Cn1nccc1C(=O)Nc1cc([C@H]2C[C@@H](OC(=O)NC3(CF)CCC3)CO2)[nH]n1 [Compound 211],1.4 nM
18,COC[C@H]1C[C@@H]1C(=O)Nc1cc([C@H]2CC[C@@H](OC(=O)N[C@@H](C)C3CC3)C2)[nH]n1 [Compound 57],5.8 nM
19,Cn1nccc1C(=O)Nc1cc([C@H]2C[C@@H](OC(=O)NC34CC(C3)C4)CO2)[nH]n1 [Compound 96],0.8 nM
20,"COCC1CC(C(=O)Nc2cc([C@H]3CC[C@@H](OC(=O)NC(C)C)C3)[nH]n2)C1 (single isomer, unassigned) [Compound 148]",5.5 nM
21,CC(C)NC(=O)O[C@@H]1CC[C@H](c2cc(NC(=O)[C@@H]3CCCN(S(C)(=O)=O)C3)n[nH]2)C1 [Compound 71],8.7 nM
22,C#C[C@H]1C[C@@H]1C(=O)Nc1cc([C@H]2C[C@@H](OC(=O)NC3(C)CC3)CO2)[nH]n1 [Compound 170],0.8 nM
23,CC(C)NC(=O)O[C@@H]1CC[C@H](c2cc(NC(=O)[C@H]3CCN(S(C)(=O)=O)C3)n[nH]2)C1 [Compound 7],2.4 nM
24,C#CC1(NC(=O)O[C@@H]2CO[C@H](c3cc(NC(=O)c4ccnn4C)n[nH]3)C2)CCC1 [Compound 198],6.8 nM
25,CC#C[C@H]1C[C@@H]1C(=O)Nc1cc([C@H]2CC[C@@H](OC(=O)NC(C)C)C2)[nH]n1 [Compound 177],1 nM
26,COC[C@H]1C[C@@H]1C(=O)Nc1cc([C@H]2CC[C@@H](OC(=O)NC34CC(C(F)F)(C3)C4)C2)[nH]n1 [Compound 142],1.6 nM
27,C#C[C@H]1C[C@@H]1C(=O)Nc1cc([C@H]2C[C@@H](OC(=O)N[C@@H](C)CC)CO2)[nH]n1 [Compound 155],4.5 nM

row,SMILES,IC50
1,CC(C)NC(=O)O[C@@H]1CO[C@H](c2cc(NC(=O)c3ccnn3CC(F)F)n[nH]2)C1 [Compound 93],5.2 nM
2,C#C[C@H]1C[C@@H]1C(=O)Nc1cc([C@H]2C[C@@H](OC(=O)NC3(C)CCC3)CO2)[nH]n1 [Compound 158],1.1 nM
3,"CC[C@H](C)NC(=O)O[C@@H]1CC[C@H](c2cc(NC(=O)C3CC3C#N)n[nH]2)C1 (single isomer, unassigned) [Compound 199]",2.3 nM
4,C#C[C@H]1C[C@@H]1C(=O)Nc1cc([C@@H]2C[C@H](OC(=O)NC3(C)CCC3)CO2)[nH]n1 [Compound 171],1.3 nM
5,CO[C@H]1C[C@H](C(=O)Nc2cc([C@H]3CC[C@@H](OC(=O)NC(C)C)C3)[nH]n2)C1 [Compound 68],8 nM
6,CC(C)NC(=O)O[C@H]1CO[C@@H](c2cc(NC(=O)Cc3ccc(OCCN4CCCC4)cc3)n[nH]2)C1 [Compound 121],3.2 nM
7,C#C[C@H]1C[C@@H]1C(=O)Nc1cc([C@H]2C[C@@H](OC(=O)NC(C)(C)C)CO2)[nH]n1 [Compound 166],0.9 nM
8,"CC(C)(C)NC(=O)O[C@@H]1CC[C@H](c2cc(NC(=O)C3CC3C#N)n[nH]2)C1 (single isomer, unassigned) [Compound 188]",0.6 nM
9,CC(C)NC(=O)O[C@@H]1CC[C@H](c2cc(NC(=O)[C@@H]3CCN(S(=O)(=O)C(C)C)C3)n[nH]2)C1 [Compound 58],4.1 nM
10,CC1(NC(=O)O[C@@H]2CC[C@H](c3cc(NC(=O)[C@@H]4CCN(S(=O)(=O)C5CC5)C4)n[nH]3)C2)CC1 [Compound 140],0.7 nM
11,Cc1cc(C(=O)Nc2cc([C@H]3C[C@@H](OC(=O)NC(C)C)CO3)[nH]n2)n(C)n1 [Compound 90],5.7 nM
12,CC(C)NC(=O)O[C@@H]1CC[C@H](c2cc(NC(=O)[C@H]3CCN(CC(F)F)C3)n[nH]2)C1 [Compound 13],5.8 nM
13,CC(C)NC(=O)O[C@@H]1CC[C@H](c2cc(NC(=O)C3CN(S(C)(=O)=O)CC3C)n[nH]2)C1 (stereo partly drawn) [Compound 75],11.5 nM
14,CC(C)NC(=O)OC1COC(c2cc(NC(=O)Cc3ccccc3C(F)(F)F)n[nH]2)C1 (stereo not drawn) [Compound 65],97.3 nM
15,"CC(C)NC(=O)O[C@@H]1CC[C@H](c2cc(NC(=O)C3CC3C#N)n[nH]2)C1 (single isomer, unassigned) [Compound 117]",3.8 nM
16,CC(C)NC(=O)O[C@@H]1CC[C@H](c2cc(NC(=O)[C@H]3C[C@@H]3COC(C)C)n[nH]2)C1 [Compound 45],2.7 nM
17,CC(C)NC(=O)O[C@H]1CO[C@@H](c2cc(NC(=O)Cc3ccccc3S(C)(=O)=O)n[nH]2)C1 [Compound 134],2.2 nM
18,Cc1c(C2CC2C(=O)Nc2cc([C@H]3CC[C@@H](OC(=O)NC(C)C)C3)[nH]n2)cnn1C (stereo partly drawn) [Compound 162],109 nM
19,CC(C)NC(=O)O[C@@H]1CC[C@H](c2cc(NC(=O)C3CCN(S(C)(=O)=O)CC3)n[nH]2)C1 [Compound 8],11.3 nM
20,COC[C@H]1CCN(C(=O)Nc2cc([C@H]3CC[C@@H](OC(=O)NC(C)C)C3)[nH]n2)C1 [Compound 123],265 nM
21,COC[C@H]1C[C@@H]1C(=O)Nc1cc([C@@H]2CC[C@H](OC(=O)NC3(C)CC3)C2)[nH]n1 [Compound 184],0.5 nM
22,CC(C)NC(=O)O[C@@H]1CC[C@H](c2cc(NC(=O)C3CCCC3)n[nH]2)C1 [Compound 37],2.9 nM
23,"CC(C)NC(=O)O[C@H]1CC[C@@H](c2cc(NC(=O)C3CC3C#N)n[nH]2)C1 (single isomer, unassigned) [Compound 193]",0.6 nM
24,Cn1nccc1C(=O)Nc1cc([C@H]2C[C@@H](OC(=O)NC34CC(F)(C3)C4)CO2)[nH]n1 [Compound 159],1.6 nM
25,"CC(C)NC(=O)O[C@@H]1CC[C@H](c2cc(NC(=O)C3CC4CCC3O4)n[nH]2)C1 (single isomer, unassigned) [Compound 146]",44.3 nM
26,CC(C)NC(=O)OC1COC(c2cc(NC(=O)c3ccccc3)n[nH]2)C1 (stereo not drawn) [Compound 67],61.2 nM
27,"CC(C)NC(=O)O[C@@H]1CC[C@H](c2cc(NC(=O)C3CC3c3cnnn3C)n[nH]2)C1 (single isomer, unassigned) [Compound 154]",2.6 nM

# — patent US20250195475A1, “CDK2 INHIBITOR AND PREPARATION METHOD AND USE THEREOF” (INVENTISBIO CO., LTD., priority 2022, published 2025)
